Results on one compound are retold here after ChEMBL document CHEMBL1150785 (Antimicrob Agents Chemother, 2007).

The experiment deals with Mycobacterium tuberculosis. Kind of experiment: Effect on mutation frequency of Mycobacterium tuberculosis H37Ra assessed as mutation prevention concentration. The format is functional.

`NNC(=O)c1ccncc1` [ISONIAZID]: the Activity was found to be 50 mg/L.
